Test results: patent US7442763B2, “Compositions for treating abnormalities in glomerular filtration, patent ductus arteriosus and osteoporosis” (Hopital Sainte-Justine, priority 1999, dated 2008)
Square brackets hold non-standard residues; d marks the D form. Ends that are not written are not given here. Bip = N[C@@H](Cc1ccc(-c2ccccc2)cc1)C(=O)O; Dip = N[C@H](C(=O)O)C(c1ccccc1)c1ccccc1; hPhe = N[C@@H](CCc1ccccc1)C(=O)O

Legend:
[1] = system: saphenous vein of piglet; experiment: PGE2-induced dilation of saphenous vein rings, organ bath assay; parameters: species or system Yorkshire piglets; details: 1 μM peptides, 1 μM PGE2; rings pre-constricted with U46619; average of 2-8 experiments
Procedure: Animals. Yorkshire piglets (2-4 days old) were used in this study, according to a protocol approved by the Animal Care Committee of the Research Centre of Ste-Justine Hospital. Briefly, animals were anesthetized with 1.5% halothane and the lower external saphenous veins removed and placed in cold Krebs buffer (pH 7.4) of the following composition (mM): NaCl 120, KCl 4.5, CaCl2 2.5, MgSO4 1.0, NaHCO3 27, KH2PO4 1.0, glucose 10, to which 1.5 U/ml heparin was added.
Organ bath assay. The saphenous veins were cleaned of extraneous tissue and cut into 4 mm rings that were placed in individual jacketed organ baths (15 ml; Radnoti Glass, Monrovia, Calif.) containing Krebs buffer and maintained at 37° C. The solution was bubbled with a mixture of 95% O2-5% CO2. In each experiment, 8 rings were used (4 from each saphenous vein) and were equilibrated for 60 min under 2.0 gr passive tension, with frequent washing and tension adjustment. Tension was measured by force-displacement transducers and was recorded on a computerized data acquisition system using the Work Bench software (both from Kent Scientific, Litchfield, Conn.).
Experimental protocol. In a first set of experiments, the relative distribution of dilatory EP receptor subtypes was ascertained using a combination of EP receptor agonists and antagonists. The vasodilatory response of the lower external saphenous veins to PGE2 appears to result from the stimulation of 30% EP2 and 70% EP4. Tissues were initially challenged with 2×10^−7 U46619 which induced a 1.5 to 2.0 gr increase in tension. […] When the response to U46619 reached a steady state, agents were added. When no response to the agents were observed, a period of 10 minutes was allowed to insure proper distribution of the agents in the tissue. Dose-response curves to PGE2 (10^−10−10^−6 M) were then obtained in the presence of absence of each of the tested drugs.
The results are average of 2-8 experiments. The results are tabulated as percent reversal of 1 μM PGE2-induced […] in the presence of 1 μM peptides. The peptides shown here contain productive and effective substitutions in the parent peptide PHG 213 (SEQ ID NO:1)

[2] = system: diabetic rats; experiment: Glomerular filtration rate and urinary volume in streptozotocin-induced diabetic rats; type: in vivo, Sprague-Dawley adult rats; details: systemic infusion
Procedure: (§1) Method: Sprague-Dawley adult rats (˜250 g) were anesthetized with 50 mg/kg pentobarbitone. Left jugular vein (for infusion) and left carotid artery (for measuring blood pressure) were catheterized and another catheter was placed at the tip of the bladder for collecting urine. Infusion of [^3H]-inulin in saline (2 μCi/Kg/h) was started and continued for 2 h to stabilize the system. Urine collection was exactly for 20 min and at 10 min mark, 0.1 ml of blood was withdrawn into heparinized tubes. Blood was centrifuged and radioactivity in plasma was counted. After 10 min and 30 min (30 min and 60 min since the start of the previous urine collection), the process was repeated. The antagonist, PHG 213, was infused in saline i.v. at 6 μmol/Kg/h for one hour before the start of first urine collection. Urinary volume (UV) is calculated and expressed as μl of urine/h corrected for the weight of the animal. GFR was calculated as the ratio of urinary […] corrected for the volume of the urine and the weight of the animal.
Method: Sprague-Dawley adult rats (˜250 g) were injected i.p. with streptozotocin (45-50 mg/Kg) and two days later, the urine was tested for glucose and proteinuria. Two weeks later, the rats that tested positive for both markers were chosen to test the effects of PHG 213 (SEQ ID NO:1) on GFR and UV using a method described above.

[3] = system: EP4 receptor; experiment: Ocular perfusion pressure in porcine eye model (ex vivo vasomotricity of choroid); parameters: species or system newborn pig; details: PHG213 infused at 100 μM after U46619 1 μM and PGE2 1 μM
Description: In order to test the efficacy of PHG213 (SEQ ID NO: 1) on EP4 receptor function, an ex vivo assay of vasomotricity of porcine choroid was used. The dilatory response to PGE2 in this vascular bed was previously shoen to be mediated by EP4 receptor (Abran, D. et al. 1997. Am. J. Physiol. 272: R995-1001).
Method: The method as described in detail by Abran et al. (1997) was followed exactly. A vortex vein from the eye of a newborn pig was catheterized with a 27-gauge needle and perfused with Kreb's solution until perfusion pressure was stable. The vasculature was first constricted with a thromboxane mimetic, U46619 (1 μM), and then PGE2 was infused at 1 μM. Once the reversal of constriction reached a plateau, then PHG213 was infused at 100 μM and the perfusion pressure was recorded.
Positive values of perfusion pressure indicate constriction whereas negative values indicate dilation of the vasculature. PGE2 reversed the constriction produced by U46619. […] Since it is known that the dilatory effects of PGE2 are predominantly mediated by EP4 receptor in choroid of the newborn pig, PHG 213 antagonized the actions of EP4 receptor and blocked the dilation produced by this receptor.

[4] = system: human fetal spleen cells in coculture with fixed SaOS-2 cells; experiment: Osteoclastogenesis (TRAP+ cells) in coculture of human fetal spleen cells and fixed SaOS-2 cells; type: cell-based; details: PHG213 100 μM, three days; n=10
Procedure: Method: SaOs-2 cells (immortalized cell line of human osteoblasts) were grown for four days in 24-well plates in alpha-MEM medium containing 10% fetal calf serum , vitamin D3 (10^−7). Confluent SaOs-2 cells were fixed in 1% paraformaldehyde M) and dexamethasone (10^−8 M in phosphate-buffered sline (PBS) for 8 min. The cells were rinsed with PBS 4 times and alpha-MEM containing 10% fetal calf serum and vitamin D3 (10^−7 M) was added.
Two days before, spleens from human abortuses were cut into small pieces and triturated several times release the cells. The spleen cells were cultured in alpha-MEM containing 10% fetal calf serum for 2 days. Spleen cells were trypsinized, rinsed once in PBS and counted using a coulter counter. An aliquot of spleen cells (10^5 cells/well) were placed over the monolayer of fixed SaOs-2 cells for 2 h, after which PHG213 (100 μM) was added. Three days later, the cells were fixed in 4% paraformaldehyde in PBS, rinsed with water and tartarat-resistant […] (TRAP) was stained using a commercial kit (Sigma, St. Louis, Mo.). TRAP-positive cells were viewed under a microscope and counted.

[5] = system: ductus arteriosus of fetal sheep; experiment: Ductus arteriosus diameter in fetal sheep by Doppler echocardiography; type: in vivo; details: 2 mg bolus followed by 1 mg/Kg infusion over 15 min
Procedure: Pregnant ewes (129-140 days of gestation) was anesthetized with ketamine (30 mg/Kg i.v.), a caesarian section was performed and the fetus exteriorized. To mimic fetal respiratory conditions, the head of the fetus was submerged in a glove filled with saline. Femoral and jugular veins were catheterized for systemic blood pressure measurements and drug infusions respectively. Ducuts arteriosus (DA) diameter was measured using Doppler echocardiography as described before (Teyssier, G. et al. 1989. J. Cardiovascular Technol. 8: 259-266). Echocardiographic measurements were performed with an Acuson 128 XP/10C real time ultrasound imaging system using 7.5 or 5-MHz transducers duplexed with a range-gated Doppler. Doppler signals were filtered by a 100-Hz high-pass filter. The DA was visualized through a left second intercostal parasternal approach. After the drugs were injected, measurements of DA diameter were repeated 3 times at 5 min intervals for the next 20-25 min.
DA was unchanged for 40 min during the stabilization period. […] PHG213, a peptide antagonist of EP4 receptor, blocked the dilatory action of the receptor which is responsible for maintaining the ductus open in the fetus.

[6] = molecular target: EP4 receptor (Homo sapiens, UniProt P35408, P4S); experiment: Basal and PGE2-stimulated cAMP levels in EP4/293 cells; type: cell-based
Description: (§2) Data are averages of four replicates.

[7] = system: normal rats; experiment: Glomerular filtration rate and urinary volume in normal rats; type: in vivo, Sprague-Dawley adult rats; details: i.v. infusion 6 μmol/Kg/h
Procedure: as §1

[8] = system: EP4 receptor; experiment: Basal and PGE2-stimulated cAMP levels in EP4/293 cells; type: cell-based, Human; details: forskolin 100 μM added for 15 min, 100 μM IBMX
Description: as §2

Sequence of EP4 receptor (Homo sapiens, UniProt P35408, P4S) (P35408 whole entry P4S): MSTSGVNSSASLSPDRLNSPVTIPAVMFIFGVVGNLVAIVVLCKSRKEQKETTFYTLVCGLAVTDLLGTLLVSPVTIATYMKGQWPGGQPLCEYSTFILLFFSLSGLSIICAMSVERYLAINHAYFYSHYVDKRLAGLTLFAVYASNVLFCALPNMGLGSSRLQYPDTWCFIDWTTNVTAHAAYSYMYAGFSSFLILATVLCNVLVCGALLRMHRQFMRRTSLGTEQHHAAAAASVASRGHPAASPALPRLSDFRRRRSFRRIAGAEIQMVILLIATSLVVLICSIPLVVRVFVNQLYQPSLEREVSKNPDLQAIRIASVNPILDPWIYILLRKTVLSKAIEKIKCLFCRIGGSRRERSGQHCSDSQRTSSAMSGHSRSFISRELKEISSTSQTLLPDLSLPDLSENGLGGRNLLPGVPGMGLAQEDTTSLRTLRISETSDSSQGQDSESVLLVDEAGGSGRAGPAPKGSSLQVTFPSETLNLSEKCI

**Q.** With “4 (IFTSYEAL; Peptide inhibitor of prostaglandin E2 receptor subtype EP4) [compound 4]” as the molecule, how does the “% blockade of PGE2 induced vasodilation” value [1] read?
**A.** 60.0%

**Q.** For 7 ([Bip]TSYEAL) [compound 7], which “% blockade of PGE2 induced vasodilation” value [1] is on record?
**A.** 65.5%

**Q.** What does the source list for “PHG213: peptide antagonist of EP4 receptor, parent peptide, D-amino acids (IFTSYECL; also: D-amino acids, places not given here)”?
**A.** GFR [2]: increased; Mean blood pressure [2]: not significantly altered; UV [2]: increased; Block of the dilatory effect of PGE2 on ocular perfusion pressure [3]: blocked this dilatory effect of PGE2 completely; Reduction of number of TRAP-positive cells (osteoclasts) [4]: half; Ductus arteriosus (DA) diameter [5]: started to constrict and continued for another 15 min and was irreversible; % inhibition of basal cAMP levels ([6]; PHG213 100 μM with 100 μM IBMX for 1 h): 60.7%; CAMP (pmol/ml/10^5 cells) ([6]; basal, PHG213 100 μM with 100 μM IBMX for 1 h, vehicle 69.9): 27.5 pmol/ml/10^5 cells; Glomerular filtration rate (GFR) increase [7]: 157%; Mean blood pressure [7]: not significantly altered; Urinary flow rate (UV) increase [7]: 2.3 fold

**Q.** With “3 (IFTSAECL; Peptide inhibitor of prostaglandin E2 receptor subtype EP4) [compound 3]” as the molecule, how does the “% blockade of PGE2 induced vasodilation” value [1] read?
**A.** 20.0%

**Q.** With 9 ([hPhe]TSYEAL) [compound 9] as the molecule, how does the “% blockade of PGE2 induced vasodilation” value [1] read?
**A.** 34.0%

**Q.** Which “% blockade of PGE2 induced vasodilation” value [1] does the source give for “5 (ILASYECL; Peptide inhibitor of prostaglandin E2 receptor subtype EP4) [compound 5]” here?
**A.** 60.0%

**Q.** Which “CAMP (pmol/ml/10^5 cells)” value [8] does the source give for `C=C[C@@]1(C)CC(=O)[C@]2(O)[C@@]3(C)[C@@H](O)CCC(C)(C)[C@@H]3[C@H](O)[C@H](OC(C)=O)[C@@]2(C)O1` [FSK, forskolin, reference compound] here?
**A.** >270 pmol/ml/10^5 cells

**Q.** For “6 (IFTSYDCL; Peptide inhibitor of prostaglandin E2 receptor subtype EP4) [compound 6]”, which “% blockade of PGE2 induced vasodilation” value [1] is on record?
**A.** 30.0%

**Q.** With `CCCCC[C@H](O)/C=C/[C@H]1[C@H](O)CC(=O)[C@@H]1C/C=C\CCCC(=O)O` [PGE2, Prostaglandin E2, reference compound] as the molecule, how does the “CAMP (pmol/ml/10^5 cells)” value ([6]; PGE2 1 μM added for 15 min, 100 μM IBMX) read?
**A.** >270 pmol/ml/10^5 cells

**Q.** How did the “% blockade of PGE2 induced vasodilation” value [1] turn out when 8 ([Dip]TSYEAL) [compound 8] was run?
**A.** 64.5%

**Q.** How did the “% blockade of PGE2 induced vasodilation” value [1] turn out when “2 (IFASYECL; Peptide inhibitor of prostaglandin E2 receptor subtype EP4) [compound 2]” was run?
**A.** 35.0%

**Q.** How did the “% blockade of PGE2 induced vasodilation” value [1] turn out when “1 (IFTSYECL; Peptide inhibitor of prostaglandin E2 receptor subtype EP4) [compound 1]” was run?
**A.** 50.0%
